Reference: PMC11181328 (Journal of Medicinal Chemistry, 2024)
Counter-ions that a name gives are not always drawn. Like-named read-outs stand apart in the source and are kept apart here.

Key:
[1] = target: T1, DOR (Homo sapiens, UniProt P41143); assay: [35S]-GTPγS functional assay, DOR; format: biochemical; details: for EC50: hDOR-CHO membranes; for Emax: percent of SNC80 full agonist control
T1 construct: expressed in transfected cells; membrane homogenate

[2] = target: T2, KOR (Mus musculus, UniProt P33534); assay: Competitive radioligand binding assay, KOR; details: for radioligand binding affinity (Ki, nM) KOR: [3H]diprenorphine, mKOR-CHO membranes; for selectivity ratio δ/κ / selectivity ratio μ/κ: ratio of Ki values
T2 construct: expressed in transfected cells; membrane homogenate

[3] = tested on: male Swiss Webster mice; assay: Warm-water tail immersion assay, agonism (single dose screen and potency); format: in vivo, mouse; details: for ED50: Mus musculus, sc, read-out: potency ED50 [95% CI] mg/kg, s.c., 20 min prior to tail withdrawal latency measurement, male Swiss Webster mice; for percent MPE / antinociception compared to the vehicle group: single dose 10 mg/kg s.c.; for percent MPE: withdrawal latency 20 min after administration; for antinociception compared to the vehicle group: 20 min
[4] = target: T3, MOR (Mus musculus, UniProt P42866); assay: Competitive radioligand binding assay, MOR; parameters: expressed in transfected cells; membrane homogenate
[5] = target: T3, MOR; assay: [35S]-GTPγS functional assay, MOR; format: biochemical; parameters: expressed in transfected cells; membrane homogenate; details: for Emax: read-out: [35S]-GTPγS functional activity MOR Emax (%)
[6] = target: T1, DOR; assay: Competitive radioligand binding assay, DOR
[7] = target: T2, KOR; assay: [35S]-GTPγS functional assay, KOR; format: biochemical; details: for EC50: mKOR-CHO membranes; for Emax: percent of U50,488 full agonist control
[8] = [3H]naloxone, mMOR-CHO membranes

CN(C(=O)CCc1ccoc1)[C@H]1CC[C@@]2(O)[C@H]3Cc4cccc5c4[C@@]2(CCN3CC2CC2)[C@H]1O5 [Compound 1, 17-Cyclopropylmethyl-4,5α-epoxy-6α-[3′-(furan-3″-yl)N-methylpropanamido]-14β-hydroxymorphinan Hydrochloride]
EC50 [1]: 137 ± 26.5 nM | Emax [1]: 56.4 ± 2.6% | Ki [2]: 0.48 ± 0.07 nM | radioligand binding affinity (Ki, nM) KOR [2]: subnanomolar | ED50 [3]: 0.553 mg/kg | percent MPE [3]: ≥ 80% | Ki [4]: 7.74 ± 0.69 nM | EC50 ([5]; mMOR-CHO membranes): 20 ± 3.49 nM | Emax [5]: 11.5 ± 0.81% | Ki [6]: 48.6 ± 6.51 nM

O=C(CCc1ccoc1)N[C@H]1CC[C@@]2(O)[C@H]3Cc4cccc5c4[C@@]2(CCN3CC2CC2)[C@H]1O5 [Compound 2, 17-Cyclopropylmethyl-4,5α-epoxy-6α-[3′-(furan-3″-yl)propanamido]-14β-hydroxymorphinan Hydrochloride]
EC50 [1]: 429 ± 62.6 nM | Emax [1]: > 80% | Ki [2]: 161 ± 11.8 nM | selectivity ratio δ/κ [2]: 1 | antinociception compared to the vehicle group [3]: lack of significant antinociceptive effect | Ki [4]: 54.5 ± 2.01 nM | EC50 ([5]; mMOR-CHO membranes): 200 ± 63.1 nM | Emax [5]: 8.8 ± 0.55% | Ki [6]: 154 ± 26.5 nM | EC50 [7]: 1010 ± 176 nM | Emax [7]: 66.1 ± 5.2%

CN(C(=O)CCc1ccoc1)[C@@H]1CC[C@@]2(O)[C@H]3Cc4cccc5c4[C@@]2(CCN3CC2CC2)[C@H]1O5 [Compound 3, 17-Cyclopropylmethyl-4,5α-epoxy-6β-[3′-(furan-3″-yl)-N-methylpropanamido]-14β-hydroxymorphinan Hydrochloride]
EC50 [1]: 5780 ± 829 nM | Emax [1]: 66.9 ± 3.52% | Ki [2]: 34.5 ± 6.27 nM | selectivity ratio δ/κ [2]: 26 | selectivity ratio μ/κ [2]: 1 | antinociception compared to the vehicle group [3]: lack of significant antinociceptive effect | Ki [4]: 43.8 ± 2.85 nM | EC50 ([5]; mMOR-CHO membranes): 224 ± 44.9 nM | Emax [5]: 13.8 ± 1.86% | Ki [6]: 891 ± 52.5 nM | EC50 [7]: 246 ± 29.2 nM | Emax [7]: 86.42 ± 0.63%

O=C(CCc1ccoc1)N[C@@H]1CC[C@@]2(O)[C@H]3Cc4cccc5c4[C@@]2(CCN3CC2CC2)[C@H]1O5 [Compound 4, 17-Cyclopropylmethyl-4,5α-epoxy-6β-[3′-(furan-3″-yl)propanamido]-14β-hydroxymorphinan Hydrochloride]
EC50 [1]: 1690 ± 116 nM | Emax [1]: 55.8 ± 2.39% | Ki [2]: 8.37 ± 1.44 nM | selectivity ratio δ/κ [2]: 90 | selectivity ratio μ/κ [2]: 2 | Ki [4]: 17.3 ± 1.68 nM | EC50 ([5]; mMOR-CHO membranes): 185 ± 38 nM | Emax [5]: 14.2 ± 1.27% | Ki [6]: 749 ± 59.1 nM | EC50 [7]: 117 ± 21.2 nM | Emax [7]: 81.4 ± 7.72%

CN(C(=O)CCc1ccoc1)[C@H]1CC[C@@]2(O)[C@H]3Cc4ccc(O)c5c4[C@@]2(CCN3CC2CC2)[C@H]1O5 [Compound 5, 17-Cyclopropylmethyl-3,14β-dihydroxy-4,5α-epoxy-6α-[3′-(furan-3″-yl)-N-methylpropanamido]morphinan Hydrochloride]
EC50 [1]: 0.75 ± 0.09 nM | Emax [1]: 68.3 ± 1% | Ki [2]: 0.13 ± 0.02 nM | radioligand binding affinity (Ki, nM) KOR [2]: subnanomolar | Ki [4]: 0.18 ± 0.02 nM | radioligand binding affinity (Ki, nM) MOR [4, 8]: subnanomolar | EC50 ([5]; mMOR-CHO membranes): 0.37 ± 0.05 nM | Emax [5]: 17.9 ± 1.81% | Ki [6]: 0.59 ± 0.06 nM | radioligand binding affinity (Ki, nM) DOR ([6]; [3H]diprenorphine, hDOR-CHO membranes): subnanomolar

CN(C(=O)CCc1ccoc1)[C@@H]1CC[C@@]2(O)[C@H]3Cc4ccc(O)c5c4[C@@]2(CCN3CC2CC2)[C@H]1O5 [Compound 7, 17-Cyclopropylmethyl-3,14β-dihydroxy-4,5α-epoxy-6β-[3′-(furan-3″-yl)-N-methylpropanamido]morphinan Hydrochloride]
EC50 [1]: 19.2 ± 1.62 nM | Emax [1]: 51.4 ± 2.78% | Ki [2]: 0.28 ± 0.05 nM | radioligand binding affinity (Ki, nM) KOR [2]: subnanomolar | ED50 [3]: 0.443 mg/kg | percent MPE [3]: ≥ 80% | Ki [4]: 0.53 ± 0.06 nM | radioligand binding affinity (Ki, nM) MOR [4, 8]: subnanomolar | EC50 ([5]; mMOR-CHO membranes): 4.3 ± 0.47 nM | Emax [5]: 12.2 ± 0.92% | Ki [6]: 8.42 ± 0.9 nM | EC50 [7]: 0.99 ± 0.04 nM | Emax [7]: 102 ± 1.05%

CN(C(=O)CCc1ccco1)[C@H]1CC[C@@]2(O)[C@H]3Cc4cccc5c4[C@@]2(CCN3CC2CC2)[C@H]1O5 [Compound 9, 17-Cyclopropylmethyl-4,5α-epoxy-6α-[3′-(furan-2″-yl)N-methylpropanamido]-14β-hydroxymorphinan Hydrochloride]
EC50 [1]: 212 ± 33.8 nM | Emax [1]: 70.5 ± 5.9% | Ki [2]: 1 ± 0.18 nM | selectivity ratio δ/κ [2]: 47 | selectivity ratio μ/κ [2]: 14 | antinociception compared to the vehicle group [3]: lack of significant antinociceptive effect | Ki [4]: 14.1 ± 1.4 nM | EC50 ([5]; mMOR-CHO membranes): 76.5 ± 48.5 nM | Emax [5]: 11.2 ± 1.55% | Ki [6]: 46.8 ± 8.37 nM | EC50 [7]: 18.4 ± 1.05 nM | Emax [7]: 91.4 ± 1.46%

O=C(CCc1ccco1)N[C@H]1CC[C@@]2(O)[C@H]3Cc4cccc5c4[C@@]2(CCN3CC2CC2)[C@H]1O5 [Compound 10, 17-Cyclopropylmethyl-4,5α-epoxy-6α-[3′-(furan-2″-yl)propanamido]-14β-hydroxymorphinan Hydrochloride]
EC50 [1]: 348 ± 40.2 nM | Emax [1]: > 80% | Ki [2]: 73.8 ± 12.2 nM | selectivity ratio δ/κ [2]: 1 | selectivity ratio μ/κ [2]: 1 | Selectivity Ratio DOR/KOR ([2]; supplement csv): 1 | Selectivity Ratio MOR/KOR ([2]; supplement csv): 1 | antinociception compared to the vehicle group [3]: lack of significant antinociceptive effect | Ki [4]: 53.1 ± 6.06 nM | EC50 ([5]; mMOR-CHO membranes): 278 ± 107 nM | Emax [5]: 10.2 ± 1.33% | Ki [6]: 90.2 ± 13 nM | EC50 [7]: 442 ± 29.9 nM | Emax [7]: 86.5 ± 1.55%

CN(C(=O)CCc1ccco1)[C@@H]1CC[C@@]2(O)[C@H]3Cc4cccc5c4[C@@]2(CCN3CC2CC2)[C@H]1O5 [Compound 11, 17-Cyclopropylmethyl-4,5α-epoxy-6β-[3′-(furan-2″-yl)-N-methylpropanamido]-14β-hydroxymorphinan Hydrochloride]
EC50 [1]: 1100 ± 108 nM | Emax [1]: 61.7 ± 4.27% | Ki [2]: 50.4 ± 6.84 nM | selectivity ratio δ/κ [2]: 11 | selectivity ratio μ/κ [2]: 2 | antinociception compared to the vehicle group [3]: lack of significant antinociceptive effect | Ki [4]: 93.6 ± 10.4 nM | EC50 ([5]; mMOR-CHO membranes): 5620 ± 2130 nM | Emax [5]: 22.9 ± 2.39% | Ki [6]: 532 ± 92.5 nM | EC50 [7]: 146 ± 27.1 nM | Emax [7]: 109 ± 5.9%

Cl.O=C(CCc1ccco1)N[C@H]1CC[C@@]2(O)[C@H]3Cc4ccc(O)c5c4[C@@]2(CCN3CC2CC2)[C@H]1O5 [Compound 14, 17-Cyclopropylmethyl-3,14β-dihydroxy-4,5α-epoxy-6α-[3′-(furan-2″-yl)propanamido]morphinan Hydrochloride]
EC50 [1]: 3.55 ± 0.77 nM | antinociception compared to the vehicle group [3]: lack of significant antinociceptive effect | radioligand binding affinity (Ki, nM) MOR [4, 8]: subnanomolar | Ki ([4]; [3H]naloxone, mMOR-CHO membranes, read-out: radioligand binding affinity (Ki, nM) MOR): 0.72 ± 0.1 nM | Emax [5]: 21.8 ± 2.76% | EC50 ([5]; supplement csv): 2.77 ± 0.73 nM | EC50 [7]: 5.22 ± 0.79 nM

CN(C(=O)/C=C/c1ccco1)[C@@H]1CC[C@@]2(O)[C@H]3Cc4cccc5c4[C@@]2(CCN3CC2CC2)[C@H]1O5 [Compound 19, 17-Cyclopropylmethyl-4,5α-epoxy-6β-[(2E)-3′-(furan-2″-yl)-N-methylprop-2-enamido]-14β-hydroxymorphinan Hydrochloride]
EC50 [1]: 5980 ± 581 nM | Emax [1]: > 80% | Ki [2]: 4.11 ± 0.57 nM | selectivity ratio δ/κ [2]: 551 | selectivity ratio μ/κ [2]: 52 | Ki [4]: 215 ± 26.5 nM | EC50 ([5]; mMOR-CHO membranes): 888 ± 363 nM | Emax [5]: 11 ± 0.68% | Ki [6]: 2260 ± 338 nM | EC50 [7]: 53.9 ± 3.33 nM | Emax [7]: 96.9 ± 8.02%
